This note sets out measurements from patent publication US20230167088A1, “1-PYRAZINYLPYRAZOLYL-3-OXYALKYL ACIDS AND THEIR DERIVATIVES, AND THEIR USE FOR CONTROL OF UNDESIRED PLANT GROWTH” (BAYER AKTIENGESELLSCHAFT, priority 2020, published 2023).

Assay [1] relates to VERPE. The experiment in a line: Herbicidal pre-emergence action 2a (greenhouse pots, visual scoring). Format: in vivo, Veronica persica. The note with it: dosage 320 g/ha, visual scoring after about 3 weeks vs untreated controls. An excerpt: (§1) [table] a) Seeds of monocotyledonous and dicotyledonous weed plants and crop plants are placed in plastic or organic plant pots and covered with soil. The compounds of the invention, formulated in the form of wettable powders (WP) or as emulsion concentrates (EC), are then applied onto the surface of the covering soil as aqueous suspension or emulsion with addition of 0.5% additive at a water application rate of 600 1/ha (converted). After the treatment, the pots are placed in a greenhouse and kept under good growth conditions for the trial plants. After about 3 weeks, the effect of the preparations is scored visually in comparison with untreated controls as percentages. For example, 100% activity=the plants have died, 0% activity=like control plants. Tables B1 to B15 below show the effects of selected compounds of the general formula (I) according to Tables 1 and 2 on various harmful plants and an application rate corresponding to 320 g/ha and/or 80 g/ha, which were obtained by the experimental procedure mentioned above.

The subject of assay [2] is ALOMY. The description is as above. In kind it is in vivo, Alopecurus myosuroides. To be noted: dosage 320 g/ha, visual scoring after about 3 weeks.
Text: as §1

Assay [3] concerns AMARE. Described as above. In kind it is in vivo, Amaranthus retroflexus. The note with it: dosage 320 g/ha, visual scoring after about 3 weeks vs untreated controls.
Text: as §1

Assay [4] concerns AMARE. The experiment in a line: Herbicidal post-emergence action 1a (greenhouse pots, visual rating). Format: in vivo, Amaranthus retroflexus. The note with it: visual rating about 3 weeks after treatment. The procedure:
(§2) [table] a) Seeds of monocotyledonous and dicotyledonous weeds and crop plants are placed in sandy loam in plastic or organic plant pots, covered with soil and cultivated in a greenhouse under controlled growth conditions. 2 to 3 weeks after sowing, the test plants are treated at the one-leaf stage. The compounds of the invention, formulated in the form of wettable powders (WP) or as emulsion concentrates (EC), are then sprayed onto the green parts of the plants as aqueous suspension or emulsion with addition of 0.5% additive at a water application rate of 600 1/ha (converted). After the test plants have been kept in the greenhouse under optimum growth conditions for about 3 weeks, the activity of the preparations is rated visually in comparison to untreated controls. For example, 100% activity=the plants have died, 0% activity=like control plants. Tables A1 to A15 below show the effects of selected compounds of the general formula (I) according to Tables 1 and 2 on various harmful plants and an application rate corresponding to 320 g/ha and/or 80 g/ha, which were obtained by the experimental procedure mentioned above.

The test system of assay [5] is POLCO. Described as above. In kind it is in vivo, Polygonum convolvulus. To be noted: dosage 320 g/ha, visual rating about 3 weeks after treatment. As for the experimental part:
as §2

The subject of assay [6] is VERPE. Described as above. In kind it is in vivo, Veronica persica. The note with it: dosage 320 g/ha, visual rating about 3 weeks after treatment. As for the experimental part: as §2
The test system of assay [7] is LOLRI. The experiment in a line: Herbicidal pre-emergence action 2a (greenhouse pots, visual scoring). Format: in vivo, Lolium rigidum. The note with it: dosage 320 g/ha, visual scoring after about 3 weeks vs untreated controls.
Text: as §1

In assay [8] the test system is ALOMY. The experiment in a line: Herbicidal post-emergence action 1a (greenhouse pots, visual rating). The note with it: Dosage 80 g/ha; rated visually about 3 weeks after treatment; 100% = plants have died, 0% = like control plants. Format: in vivo, Alopecurus myosuroides. The procedure: as §2
Assay [9] deals with AVEFA. Described as above. Format: in vivo, Avena fatua. The note with it: Dosage 80 g/ha; rated visually about 3 weeks after treatment; 100% = plants have died, 0% = like control plants. The procedure:
as §2

The test system of assay [10] is POLCO. The experiment in a line: Herbicidal pre-emergence action 2a (greenhouse pots, visual scoring). The note with it: dosage 320 g/ha, visual scoring after about 3 weeks vs untreated controls. In kind it is in vivo, Polygonum convolvulus.
Text: as §1

The test system of assay [11] is SETVI. Described as above. In kind it is in vivo, Setaria viridis. To be noted: dosage 320 g/ha, visual scoring after about 3 weeks vs untreated controls.
Text: as §1

Assay [12] relates to AVEFA. Described as above. Format: in vivo, Avena fatua. The note with it: dosage 320 g/ha, visual scoring after about 3 weeks.
Text: as §1

Consider `C[C@@H](Oc1nn(-c2cnccn2)c(-c2ccc(F)nc2)c1Br)C(=O)NCC1CC1` [II-06], for which, in [1], the “Pre-emergence action against VERPE in %” value is reported as 100%.

Turning to `COC(=O)[C@@H](C)Oc1nn(-c2cnccn2)c(-c2ccnnc2)c1C#N` [Example I-32], in assay [1], the “Pre-emergence action against VERPE in %” value turned out to be 90%.

`COC(=O)CCNC(=O)[C@@H](C)Oc1nn(-c2cnccn2)c(-c2ccc(F)nc2)c1Br` [II-02]: the “Pre-emergence action against ALOMY in %” value in assay [2] stood at 80%.

Take `CS(=O)(=O)NC(=O)COc1nn(-c2cnccn2)c(-c2ccc(F)nc2)c1Br` [II-14]: the “Pre-emergence action against AMARE in %” value in assay [3] is on record as 80%.

Regarding `COC(=O)COc1nn(-c2cnccn2)c(-c2ccc(F)nc2)c1C1CC1` [Example I-84], the “Post-emergence action against AMARE in %” value in assay [4] (dosage 80 g/ha) and in assay [4] (dosage 320 g/ha) was 90% each time. In addition, the “Post-emergence action against POLCO in %” value in [5] was 80%. In addition, the “Pre-emergence action against AMARE in %” value in [3] was found to be 90%. The “Post-emergence action against VERPE in %” value in assay [6] was found to be 80%.

Regarding `CC(Oc1nn(-c2cnccn2)c(-c2ccc(F)nc2)c1C1CC1)C(=O)O` (centres unmarked) [Example I-86], the “Pre-emergence action against ALOMY in %” value in assay [2] was 100%. For the same compound, the “Pre-emergence action against LOLRI in %” value in assay [7] was 100%. In assay [8], the “Post-emergence action against ALOMY in %” value came out at 90%. The “Post-emergence action against AVEFA in %” value in assay [9] is on record as 90%. The “Pre-emergence action against POLCO in %” value in assay [10] was determined as 80%. Also, the “Pre-emergence action against AMARE in %” value in assay [3] was 80%.

Turning to `CN(C)S(=O)(=O)NC(=O)COc1nn(-c2cnccn2)c(-c2ccc(F)nc2)c1Br` [II-12], the “Pre-emergence action against AMARE in %” value in assay [3] is reported as 80%. The “Pre-emergence action against SETVI in %” value in assay [11] was determined as 100%.

Take `COC(=O)[C@@H](C)Oc1nn(-c2nccnc2F)c(-c2ccc(F)nc2)c1Br` [Example I-80]: the “Pre-emergence action against ALOMY in %” value in [2] was determined as 100%. In [7], the “Pre-emergence action against LOLRI in %” value was determined as 80%. In addition, the “Post-emergence action against AMARE in %” value in [4] (dosage 80 g/ha) and in assay [4] (dosage 320 g/ha) was 80% throughout. Moreover, the “Pre-emergence action against VERPE in %” value in [1] is recorded as 80%. Further, the “Post-emergence action against POLCO in %” value in assay [5] was determined as 80%. Moreover, in assay [3], the “Pre-emergence action against AMARE in %” value was 100%.

On to `COC(=O)[C@@H](C)Oc1nn(-c2cnccn2)c(-c2ccc(F)nc2)c1C1CC1` [Example I-87], for which the “Pre-emergence action against ALOMY in %” value in assay [2] turned out to be 100%. The “Pre-emergence action against LOLRI in %” value in [7] was 100%. For the same compound, the “Post-emergence action against AMARE in %” value in assay [4] (dosage 80 g/ha) is 80%. Further, in assay [1], the “Pre-emergence action against VERPE in %” value came to 80%. The “Post-emergence action against ALOMY in %” value in [8] amounted to 100%. The “Post-emergence action against AVEFA in %” value in assay [9] turned out to be 90%. Moreover, the “Pre-emergence action against SETVI in %” value in assay [11] is reported as 100%. In addition, the “Pre-emergence action against AVEFA in %” value in assay [12] is recorded as 90%.
